Data: patent publication US9382254B2, “Compounds and pharmaceutical compositions thereof for the treatment of cystic fibrosis” (Galapagos NV, priority 2013, dated 2016)

Experiments:
CFTR ΔF508 mutant = molecular target: T1, CFTR ΔF508 mutant (Homo sapiens, UniProt P13569, DEL508-508); test: YFP-halide influx assay for the CFTR-ΔF508 mutation (384 well, FDSS/μCell); assay type: cell-based; conditions: CFBE41o- cells, CFTR-ΔF508, 1×D-PBS, fluorescence after 36 seconds
T1 construct: expressed in transfected cells; host or cells: CFBE41o- (adenoviral transduction)
T1 sequence (P13569 with tags, fused parts or gaps DEL508-508): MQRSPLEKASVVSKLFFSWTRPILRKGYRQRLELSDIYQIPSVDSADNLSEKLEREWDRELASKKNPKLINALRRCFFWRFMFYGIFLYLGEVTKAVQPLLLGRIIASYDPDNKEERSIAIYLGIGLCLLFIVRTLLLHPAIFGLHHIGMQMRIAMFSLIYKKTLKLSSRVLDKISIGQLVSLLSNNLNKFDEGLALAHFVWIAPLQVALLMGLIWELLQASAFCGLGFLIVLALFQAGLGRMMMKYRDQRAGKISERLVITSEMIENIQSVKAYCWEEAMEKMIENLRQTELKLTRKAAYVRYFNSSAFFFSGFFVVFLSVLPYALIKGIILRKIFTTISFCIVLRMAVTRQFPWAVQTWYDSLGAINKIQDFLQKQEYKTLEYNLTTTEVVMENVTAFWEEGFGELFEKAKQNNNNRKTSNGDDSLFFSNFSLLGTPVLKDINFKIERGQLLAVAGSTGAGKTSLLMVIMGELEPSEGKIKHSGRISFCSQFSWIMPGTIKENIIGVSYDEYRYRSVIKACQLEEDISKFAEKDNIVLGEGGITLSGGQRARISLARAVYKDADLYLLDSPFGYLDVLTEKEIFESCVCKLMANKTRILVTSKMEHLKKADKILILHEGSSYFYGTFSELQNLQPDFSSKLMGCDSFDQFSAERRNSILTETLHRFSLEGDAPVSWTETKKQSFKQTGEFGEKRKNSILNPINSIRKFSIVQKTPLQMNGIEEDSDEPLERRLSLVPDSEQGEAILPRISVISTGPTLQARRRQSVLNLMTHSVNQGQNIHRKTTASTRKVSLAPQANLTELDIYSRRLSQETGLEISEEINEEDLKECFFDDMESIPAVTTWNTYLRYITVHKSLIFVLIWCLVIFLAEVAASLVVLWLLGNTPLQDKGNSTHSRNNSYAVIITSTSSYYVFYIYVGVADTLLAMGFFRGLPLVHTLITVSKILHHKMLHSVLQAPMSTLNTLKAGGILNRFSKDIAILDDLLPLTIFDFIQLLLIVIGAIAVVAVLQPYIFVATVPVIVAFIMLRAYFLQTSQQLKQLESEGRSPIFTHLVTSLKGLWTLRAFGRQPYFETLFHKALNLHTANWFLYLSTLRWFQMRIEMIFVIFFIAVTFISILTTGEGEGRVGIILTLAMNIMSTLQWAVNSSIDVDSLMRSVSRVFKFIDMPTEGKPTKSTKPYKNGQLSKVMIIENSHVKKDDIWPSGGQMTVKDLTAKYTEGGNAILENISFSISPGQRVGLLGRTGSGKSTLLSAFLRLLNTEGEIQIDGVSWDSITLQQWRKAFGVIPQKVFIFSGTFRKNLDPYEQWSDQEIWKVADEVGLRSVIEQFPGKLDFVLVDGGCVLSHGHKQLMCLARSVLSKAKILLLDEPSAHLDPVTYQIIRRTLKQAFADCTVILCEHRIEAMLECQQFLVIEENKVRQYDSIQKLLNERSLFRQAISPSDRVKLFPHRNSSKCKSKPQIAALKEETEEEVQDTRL
Method in brief: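 Potentiator read-out as 1−F/F0, F taken 36 s after iodide addition, EC50 fitted against compound concentration. Cells: CFBE41o- expressing ΔF508 CFTR plus halide-sensitive YFP via adenovirus, rescued by 27 °C for 24 h or 24 h modulator at 37 °C.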

CFTR G551D mutant = molecular target: T2, CFTR G551D mutant (Homo sapiens, UniProt P13569, G551D); test: YFP-halide influx assay for the CFTR-G551D mutation; assay type: cell-based; conditions: HEK293 cells, forskolin 10.67 μM
T2 construct: expressed in transfected cells; host or cells: HEK293 (reverse transfection with plasmid)
T2 sequence (P13569 whole entry G551D): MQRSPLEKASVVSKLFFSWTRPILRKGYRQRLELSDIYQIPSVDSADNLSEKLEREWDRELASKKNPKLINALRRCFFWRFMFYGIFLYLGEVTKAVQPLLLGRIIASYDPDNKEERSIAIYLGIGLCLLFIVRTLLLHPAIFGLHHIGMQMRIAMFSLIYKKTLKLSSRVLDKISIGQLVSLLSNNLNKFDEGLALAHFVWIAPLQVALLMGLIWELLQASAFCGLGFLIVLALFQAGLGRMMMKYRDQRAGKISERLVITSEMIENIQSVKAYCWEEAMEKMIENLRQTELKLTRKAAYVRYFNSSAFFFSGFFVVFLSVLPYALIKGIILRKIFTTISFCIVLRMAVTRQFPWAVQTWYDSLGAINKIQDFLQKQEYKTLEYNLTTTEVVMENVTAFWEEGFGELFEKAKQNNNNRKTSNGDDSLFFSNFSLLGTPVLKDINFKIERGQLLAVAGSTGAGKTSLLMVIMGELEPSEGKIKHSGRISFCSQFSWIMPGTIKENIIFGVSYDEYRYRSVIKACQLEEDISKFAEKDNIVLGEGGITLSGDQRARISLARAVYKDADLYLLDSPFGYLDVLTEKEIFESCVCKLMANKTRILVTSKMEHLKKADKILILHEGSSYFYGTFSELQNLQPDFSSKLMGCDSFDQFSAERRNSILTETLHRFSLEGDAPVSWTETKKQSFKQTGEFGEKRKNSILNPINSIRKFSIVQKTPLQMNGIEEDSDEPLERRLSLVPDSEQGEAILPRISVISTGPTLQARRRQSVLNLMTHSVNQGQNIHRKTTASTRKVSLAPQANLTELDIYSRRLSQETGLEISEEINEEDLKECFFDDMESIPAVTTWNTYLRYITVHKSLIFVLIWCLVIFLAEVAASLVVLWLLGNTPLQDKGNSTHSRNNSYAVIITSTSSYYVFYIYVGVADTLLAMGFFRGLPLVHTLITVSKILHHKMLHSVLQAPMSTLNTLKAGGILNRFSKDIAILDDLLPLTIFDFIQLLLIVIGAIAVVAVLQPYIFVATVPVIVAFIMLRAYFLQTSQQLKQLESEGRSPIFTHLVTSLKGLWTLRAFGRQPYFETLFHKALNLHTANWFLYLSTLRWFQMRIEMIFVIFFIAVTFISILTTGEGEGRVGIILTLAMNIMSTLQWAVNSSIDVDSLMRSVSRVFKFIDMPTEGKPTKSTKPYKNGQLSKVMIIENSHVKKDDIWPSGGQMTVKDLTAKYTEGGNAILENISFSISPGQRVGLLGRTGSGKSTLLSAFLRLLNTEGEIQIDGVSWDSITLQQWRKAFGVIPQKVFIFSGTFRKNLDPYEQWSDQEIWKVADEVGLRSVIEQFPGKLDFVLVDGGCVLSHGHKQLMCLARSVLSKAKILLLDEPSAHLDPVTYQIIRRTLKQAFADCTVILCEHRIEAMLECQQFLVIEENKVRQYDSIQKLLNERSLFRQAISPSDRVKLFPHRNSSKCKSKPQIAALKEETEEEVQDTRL
Method in brief: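 Channel opening potentiation measured as 1−F/F0, where F is YFP fluorescence 7 s after iodide injection and F0 before; EC50 taken from concentration plot. Cells: HEK293 transiently expressing CFTR G551D plus halide-sensitive YFP (H148Q, I152L, F47L), 24 h at 37 °C, 5% CO2.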

SMILES | EC50 (CFTR ΔF508 mutant) | EC50 (CFTR G551D mutant)
CC(C)(O)C(=O)Nc1sc(S(=O)(=O)c2ccc(OC(F)(F)F)c(F)c2F)cc1C(N)=O [Compound 378, 5-[2,3-difluoro-4-(trifluoromethoxy)phenyl] sulfonyl-2-[(2-hydroxy-2-methyl-propanoyl)amino] thiophene-3-carboxamide] | 26.1 nM | 1850 nM
CC(C)(O)C(=O)Nc1sc(S(=O)(=O)c2ccc(C#N)cc2)cc1C(N)=O [Compound 381, 5-(4-cyanophenyl)sulfonyl-2-[(2-hydroxy-2-methyl-propanoyl)amino] thiophene-3-carboxamide] | 55.9 nM | 1310 nM
C[C@H](CO)C(=O)Nc1sc(S(=O)(=O)c2ccc(OC(F)(F)F)cc2)cc1C(N)=O [Compound 382, 2-[[(2R)-3-hydroxy-2-methyl-propanoyl]amino]-5-[4-(trifluoromethoxy)phenyl] sulfonyl-thiophene-3-carboxamide] | 66.1 nM | 873 nM
Cc1cc(S(=O)(=O)c2cc(C(N)=O)c(NC(=O)C(C)(C)O)s2)ncc1F [Compound 383, 5-[(5-fluoro-4-methyl-2-pyridyl)sulfonyl]-2-[(2-hydroxy-2-methyl-propanoyl)amino] thiophene-3-carboxamide] | 135 nM | 2610 nM
Cc1ccc(S(=O)(=O)c2cc(C(N)=O)c(NC(=O)C(C)(C)O)s2)nc1 [Compound 384, 2-[(2-hydroxy-2-methyl-propanoyl)amino]-5-[(5-methyl-2-pyridyl)sulfonyl] thiophene-3-carboxamide] | 159 nM | 2740 nM
CC(C)(O)C(=O)Nc1sc(S(=O)(=O)c2ccc(Cl)nc2)cc1C(N)=O [Compound 385, 5-[(6-chloro-3-pyridyl)sulfonyl]-2-[(2-hydroxy-2-methyl-propanoyl)amino] thiophene-3-carboxamide] | 62.6 nM | 1180 nM
CC(CO)C(=O)Nc1sc(S(=O)(=O)c2cc(Cl)ccc2OC(F)(F)F)cc1C(N)=O (centres unmarked) [Compound 386, 5-[5-chloro-2-(trifluoromethoxy)phenyl] sulfonyl-2-[(3-hydroxy-2-methyl-propanoyl)amino] thiophene-3-carboxamide] | 2 nM | 25.9 nM
CC(C)(O)C(=O)Nc1sc(S(=O)(=O)c2ccc(Cl)cc2OC(F)(F)F)cc1C(N)=O [Compound 388, 5-[4-chloro-2-(trifluoromethoxy)phenyl] sulfonyl-2-[(2-hyroxy-2-methyl-propanoyl)amino] thiophene-3-carboxamide] | 43.3 nM | 695 nM
CC(CO)C(=O)Nc1sc(S(=O)(=O)c2ccc(OC(F)(F)F)cn2)cc1C(N)=O (centres unmarked) [Compound 392, 2-[(3-hydroxy-2-methyl-propanoyl)amino]-5-[[5-(trifluoromethoxy)-2-pyridyl]sulfonyl] thiophene-3-carboxamide] | 84.6 nM | 1600 nM
CC(C)(O)C(=O)Nc1sc(S(=O)(=O)c2ccc(C(F)F)cn2)cc1C(N)=O [Compound 395, 5-[[5-(difluoromethyl)-2-pyridyl]sulfonyl]-2-[(2-hydroxy-2-methyl-propanoyl)amino] thiophene-3-carboxamide] | 294 nM | 1860 nM
CC(O)C(=O)Nc1sc(S(=O)(=O)c2ccc(C(F)(F)F)cn2)cc1C(N)=O (centres unmarked) [Compound 396, 2-(2-hydroxypropanoylamino)-5-[[5-(trifluoromethyl)-2-pyridyl]sulfonyl] thiophene-3-carboxamide] | 110 nM | 1350 nM
CC(O)C(=O)Nc1sc(S(=O)(=O)c2ccc(C(F)(F)F)cc2)cc1C(N)=O (centres unmarked) [Compound 398, 2-(2-hydroxypropanoylamino)-5-[4-(trifluoromethyl)phenyl]sulfonyl-thiophene-3-carboxamide] | 22.8 nM | 515 nM
Cc1cc(C#N)cc(S(=O)(=O)c2cc(C(N)=O)c(NC(=O)C(C)(C)O)s2)c1 [Compound 399, 5-(3-cyano-5-methyl-phenyl)sulfonyl-2-[(2-hydroxy-2-methyl-propanoyl)amino] thiophene-3-carboxamide] | 56.6 nM | 1900 nM
